Seven molecules from PubChem BioAssay (NCI) can be followed below.

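Exposure lasted 48 hours, with cells grown in 96-well plates and compounds tested at five concentrations. Definition used: TGI = concentration required for complete inhibition of growth.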

Test systems include NCI/ADR-RES ovarian; OVCAR-4 ovarian; HT29 colon; ACHN renal; UACC-257 melanoma; MALME-3M melanoma; UACC-62 melanoma; TK-10 renal; UO-31 renal; RXF 393 renal; NCI-H226 lung.
Common to all, as to assay: NCI tumour cell line growth inhibition, 48 h

As to `CCCCCCc1cc2cc(-c3csc(CC#N)n3)c(=O)oc2cc1O`, the TGI is > 100 µM in the assay with NCI/ADR-RES ovarian; 12.9 µM in the assay on OVCAR-4 ovarian; > 100 µM in the assay on HT29 colon; > 100 µM in the assay on ACHN renal; > 100 µM in the assay with UACC-257 melanoma; > 100 µM in the assay with MALME-3M melanoma. The TGI in the assay with UACC-62 melanoma was > 100 µM; in the assay on TK-10 renal it was > 100 µM; in the assay on UO-31 renal, > 78.6 µM; with RXF 393 renal, > 89.2 µM; with NCI-H226 lung, > 71.1 µM.

Take `Cc1ccccc1C(=O)N1CCc2c([nH]c3ccccc23)C1`: the TGI in the assay on NCI/ADR-RES ovarian is 62.7 µM; with OVCAR-4 ovarian it was 74.9 µM; in the assay with HT29 colon it was 44.7 µM; in the assay with ACHN renal, > 100 µM; in the assay on UACC-257 melanoma, 58.2 µM; in the assay with MALME-3M melanoma, 81.5 µM. Further, the TGI in the assay on UACC-62 melanoma is 31.6 µM; in the assay on TK-10 renal it was 80.2 µM; in the assay with UO-31 renal it was > 100 µM; in the assay with RXF 393 renal, 43.1 µM; with NCI-H226 lung it was 65 µM.

Regarding `NC(N)=N/N=C/c1c(-c2ccc(N)cc2)nc2sccn12`, the TGI was > 100 µM in the assay with NCI/ADR-RES ovarian; > 100 µM with OVCAR-4 ovarian; 56.8 µM in the assay on HT29 colon; 77.9 µM with ACHN renal; > 100 µM in the assay with UACC-257 melanoma; > 100 µM in the assay on MALME-3M melanoma. The TGI in the assay on UACC-62 melanoma is > 100 µM; in the assay with TK-10 renal, 40.9 µM; with UO-31 renal, 39.2 µM; with RXF 393 renal, 39.9 µM; in the assay on NCI-H226 lung, > 100 µM.

In the case of `COC(=O)c1c(C)cccc1C1CN=NC12Cc1ccc(C)cc1C2=O` (configuration not stated), the TGI in the assay on NCI/ADR-RES ovarian, with OVCAR-4 ovarian, with HT29 colon, in the assay on ACHN renal, in the assay with UACC-257 melanoma and in the assay with MALME-3M melanoma was > 100 µM in each case. Also, the TGI in the assay on UACC-62 melanoma was 78.5 µM; in the assay on TK-10 renal it was > 100 µM; with UO-31 renal, > 100 µM; with RXF 393 renal, > 100 µM; in the assay on NCI-H226 lung it was > 100 µM.

Consider `O=C1C=CC(=O)c2c1ccc1c3ccccc3n(CCCCCCCCCCCCn3c4ccccc4c4ccc5c(c43)C(=O)C=CC5=O)c21`, for which the TGI in the assay on NCI/ADR-RES ovarian, in the assay on OVCAR-4 ovarian, with HT29 colon, in the assay on ACHN renal, with UACC-257 melanoma and in the assay with MALME-3M melanoma was > 100 µM throughout. Also, the TGI with UACC-62 melanoma, with TK-10 renal, in the assay with UO-31 renal, with RXF 393 renal and with NCI-H226 lung was > 100 µM throughout.

On to `CC(C)=CCc1c2c(c3occ(-c4ccc(O)cc4)c(=O)c3c1O)CC(C(C)(C)O)O2` (configuration not stated), for which the TGI in the assay with NCI/ADR-RES ovarian came to 40.6 µM; with OVCAR-4 ovarian it was 28.8 µM; in the assay on HT29 colon, 25.8 µM; in the assay with ACHN renal, 28 µM; in the assay on UACC-257 melanoma, 29.1 µM; in the assay on MALME-3M melanoma, 36.3 µM. Besides, the TGI was 30 µM with UACC-62 melanoma; 30.1 µM in the assay with TK-10 renal; 22.2 µM with UO-31 renal; 30.3 µM in the assay with RXF 393 renal; 43 µM in the assay with NCI-H226 lung.

As to `C=C1C(=O)O[C@@H]2C(=O)[C@@H](C)CCC/C(C)=C/CC[C@@]3(C)O[C@@H]3C[C@@H]12`, the TGI in the assay on NCI/ADR-RES ovarian was > 100 µM; in the assay with OVCAR-4 ovarian it was > 100 µM; in the assay with HT29 colon it was 31.1 µM; with ACHN renal, > 100 µM; in the assay with UACC-257 melanoma, > 100 µM; with MALME-3M melanoma it was > 100 µM. Also, the TGI in the assay on UACC-62 melanoma is > 100 µM; in the assay on TK-10 renal, 81.6 µM; in the assay with UO-31 renal, > 100 µM; in the assay with RXF 393 renal it was 17.1 µM; with NCI-H226 lung, > 100 µM.
